In patent US20180353524A1, “CANCER TREATMENT USING 2-DEOXY-2-FLUORO-L-FUCOSE IN COMBINATION WITH A CHECKPOINT INHIBITOR” (SEATTLE GENETICS, INC., priority 2015, published 2018):

Test system: 4T1 cells
Experiment: 4T1 mouse tumor study, tumor infiltrating immune cells
Format: in vivo, balb/c mice
Conditions: 4T1 tumors, 20 mM in drinking water
Procedure: To evaluate the effect of 2FF treatment on tumor infiltrating immune cells balb/c mice were implanted with 4T1 cells (2×10^4 injected sc.) and on the same day started on 20 mM 2FF drinking water. On day 19 (when tumors were approximately ˜250-300 mm^3) or day 28 (when tumors were ˜800-1000 mm^3) tumors were removed, finely minced with a razor blade and suspend in 5 mL cold disassociation buffer (DMEM (high glucose) media, 5% FBS, 1 M HEPES, 2 mg/mL collagenase D (Roche), 0.1 mg/mL DNAse I (50 mg/mL stock in 20 mM Tris-HCL (ph7.5), 1 mM MgCl2, 50% glycerol) and transferred to a Miltenyi C-tube. GentleMACS was run on each tube and the tubes incubated at 37° C. for 40 minutes with continuous rotation. GentleMACS was then run twice and the tubes quickly spun down to collect the tumor in the bottom of the tube. The tube contents was then passed through a 70 μm mesh filter into a 50 mL falcon tube using the rubber stopper of a syringe to gently dissociate the tissue. The filter was washed with 5 mL of cold enzyme inhibitor buffer (DMEM (high glucose), 0.25 M EDTA) and the tube spun down, supernatant discarded and the samples re-suspend in PBS. Cells were then stained with eFluor®506 viability dye (eBioscience) following the manufactures instructions. Cells were washed twice in FACS staining buffer (0.5% FBS, 0.05% NaN3) and immune phenotyped with three different panels of antibodies, each containing an antibody against CD45 to identify immune cells. The cells phenotyped for dendritic cell antigens were stained with the desired antiboides for 30 minutes in the dark on ice, washed twice in staining buffer and resuspended in 1:4 PBS:fixation buffer (Biolgend) and stored at 4° C. overnight. The following day cells were washed in FACS stain buffer and analyzed on the LSRII flow cytometer. The cells phenotyped for T regulatory cells were first stained with the desired antibodies against cell surface antigens for 30 minutes in the dark on ice. […]

C[C@@H]1OC(O)[C@@H](F)[C@H](O)[C@@H]1O (stereo partly drawn) [2-deoxy-2-fluoro-L-fucose]
T regulatory cells in tumor (day 19 after implantation): significantly decreased T regulatory cells
dendritic cells in tumor (day 19 after implantation): increased dendritic cells which are more activated
memory and effector T cells in tumor (day 28 after implantation): increased memory and effector T cells
